According to paper PMC3487895, “Artepillin C, a Major Ingredient of Brazilian Propolis, Induces a Pungent Taste by Activating TRPA1 Channels” (PLoS ONE, 2012):

Experiments:
[1] = target: T1, human transient receptor potential ankyrin 1 (hTRPA1) (Homo sapiens, UniProt O75762); assay: calcium influx (FLIPR Calcium […] plate reader and Fura-2 imaging) in hTRPA1-expressing Flp-In […] cells; blocked by HC-030031, absent in parental cells; assay type: cell-based
T1 construct: gene TRPA1; entire coding region (NM_007332.2)

[2] = target: T1, human transient receptor potential ankyrin 1 (hTRPA1); assay: calcium influx (FLIPR Calcium […] plate reader and Fura-2 imaging) in hTRPA1-expressing Flp-In […] cells; blocked by HC-030031; assay type: cell-based

T1 sequence (O75762 whole entry): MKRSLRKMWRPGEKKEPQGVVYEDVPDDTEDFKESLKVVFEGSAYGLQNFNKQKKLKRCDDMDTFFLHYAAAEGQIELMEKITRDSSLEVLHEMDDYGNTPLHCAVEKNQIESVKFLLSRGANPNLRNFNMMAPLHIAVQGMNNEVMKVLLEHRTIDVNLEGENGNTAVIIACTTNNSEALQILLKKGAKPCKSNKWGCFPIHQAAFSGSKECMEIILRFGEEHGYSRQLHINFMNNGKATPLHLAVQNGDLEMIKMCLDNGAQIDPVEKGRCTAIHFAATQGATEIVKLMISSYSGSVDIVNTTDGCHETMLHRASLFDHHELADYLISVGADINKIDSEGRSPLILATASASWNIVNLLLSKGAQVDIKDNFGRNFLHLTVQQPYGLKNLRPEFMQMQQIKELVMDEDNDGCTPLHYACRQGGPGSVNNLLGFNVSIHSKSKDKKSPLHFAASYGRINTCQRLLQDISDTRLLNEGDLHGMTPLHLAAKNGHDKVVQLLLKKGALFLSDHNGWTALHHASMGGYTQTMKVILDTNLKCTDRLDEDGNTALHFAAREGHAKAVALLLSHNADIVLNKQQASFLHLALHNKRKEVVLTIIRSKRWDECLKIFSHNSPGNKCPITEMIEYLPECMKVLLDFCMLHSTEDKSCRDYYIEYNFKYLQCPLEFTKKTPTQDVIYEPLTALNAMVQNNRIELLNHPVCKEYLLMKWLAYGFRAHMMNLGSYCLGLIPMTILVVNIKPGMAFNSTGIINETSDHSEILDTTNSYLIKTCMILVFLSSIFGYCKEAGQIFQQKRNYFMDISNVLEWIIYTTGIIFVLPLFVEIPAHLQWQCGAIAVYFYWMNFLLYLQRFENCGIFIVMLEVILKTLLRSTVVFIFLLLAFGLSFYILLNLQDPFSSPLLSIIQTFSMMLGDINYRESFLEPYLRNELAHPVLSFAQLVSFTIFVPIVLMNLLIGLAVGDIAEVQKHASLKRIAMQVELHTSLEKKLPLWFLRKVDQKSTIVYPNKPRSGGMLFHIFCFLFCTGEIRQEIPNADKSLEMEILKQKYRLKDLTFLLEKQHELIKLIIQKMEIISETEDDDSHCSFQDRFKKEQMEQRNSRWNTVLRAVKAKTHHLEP

SMILES | EC50 [1] [µM] | EC50 [2] [µM]
CC(C)=CCc1cc(/C=C/C(=O)O)cc(CC=C(C)C)c1O [artepillin C, 3,5-diprenyl-4-hydroxycinnamic acid] | 1.8 | 
CC(C)=CCc1cc(/C=C/C(=O)O)ccc1OC(=O)CCc1ccccc1 [baccharin, (E)-3-prenyl-4-(2,3-dihydrocinnamoyloxy) cinnamic acid] |  | 15.5
